Publication PMC12022909, “A Multicomponent Reaction-Based Platform Opens New Avenues in Aryl Hydrocarbon Receptor Modulation” (ACS Central Science, 2025)

Key:
[1] = system: HaCaT cells; design: method as in PMID 25431849, PMID 34418602; settings: cited from earlier work
[2] = target: T1, AhR (Homo sapiens, UniProt P35869); assay: Global proteomics (TMT labeling, LC/MS) in MCF7 cells; type: cell-based; settings: 10 μM, 5 h
T1 construct: Degradation of endogenous AhR was further confirmed via Western blotting and global proteomics measurements in cells treated with 12b; host or cells: MCF7
T1 sequence (P35869 11-848): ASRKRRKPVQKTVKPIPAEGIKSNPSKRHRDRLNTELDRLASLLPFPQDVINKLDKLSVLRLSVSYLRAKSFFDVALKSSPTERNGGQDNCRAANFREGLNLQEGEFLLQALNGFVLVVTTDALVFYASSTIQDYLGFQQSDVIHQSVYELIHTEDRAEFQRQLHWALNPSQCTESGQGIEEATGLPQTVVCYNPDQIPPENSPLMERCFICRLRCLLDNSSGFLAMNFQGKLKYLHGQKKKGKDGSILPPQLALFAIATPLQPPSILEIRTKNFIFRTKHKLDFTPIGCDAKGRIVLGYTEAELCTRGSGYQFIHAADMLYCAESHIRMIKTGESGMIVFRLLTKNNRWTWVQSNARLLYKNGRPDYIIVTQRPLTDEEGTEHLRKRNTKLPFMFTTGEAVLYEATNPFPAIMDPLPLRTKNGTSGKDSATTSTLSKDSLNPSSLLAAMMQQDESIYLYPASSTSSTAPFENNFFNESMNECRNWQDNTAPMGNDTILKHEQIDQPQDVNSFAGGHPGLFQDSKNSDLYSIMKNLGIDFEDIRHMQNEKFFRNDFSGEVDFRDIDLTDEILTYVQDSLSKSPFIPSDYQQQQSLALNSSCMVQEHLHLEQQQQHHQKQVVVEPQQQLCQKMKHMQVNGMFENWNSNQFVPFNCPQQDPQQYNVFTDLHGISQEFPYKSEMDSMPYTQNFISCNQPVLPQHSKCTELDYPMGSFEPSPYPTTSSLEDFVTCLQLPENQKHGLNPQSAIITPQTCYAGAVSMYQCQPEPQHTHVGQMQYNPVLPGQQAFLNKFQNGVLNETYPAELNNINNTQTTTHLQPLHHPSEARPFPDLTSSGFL
Protocol: (§1) Figure 6 Bifunctional AhR probes and AhR reporter in MCF7 cells. (a) Synthetic access to the conjugatable AhR ligand 5m. (b) Structure, yield, and EC50 value of the model amide 12a and MD simulation of AhR with 12a (last snapshot). (c) PROTAC-like compound 12b and dual probes 12c–d. Reaction conditions: (a) 5m (1 equiv), amine (1 equiv), HATU, DIPEA, DMF, rt, 24 h, Ar atm; (b) 5m (2 equiv), diamine (1 equiv), HATU, DIPEA, DMF, rt, 24 h, Ar atm. (d) General setup of the reporter system for quantifying AhR protein levels. (e) The population of MCF7 reporter cells (MCF7 AhR-GFP.IRES.mCherry) gated by flow cytometry and used for quantification of AhR. […] Values represent the ratio of the geometric mean of GFP and mCherry values in the gated population. (g) Change in protein levels relative to vehicle treatment (DMSO) in MCF7 cells treated with 12b at 10 μM for 5 h quantified by TMT labeling and LC/MS analysis versus p-Value. TEXT PRINTED IN THE PICTURE: (b) 12a: EC50 = 0.40 μM […]
Generation of reporter cell lines
The MCF7.AhR-GFP.IRES.mCherry and MCF7.AhRdPasB(d275-342)-GFP.IRES.mCherryreporter cell line was generated via lentivirus transduction. The coding sequence of the full length AhR (NM_001621.5), as well as the PasB deleted AhR (d275-342) were synthesized and cloned into a Lenti virus transfer plasmid (Artichoke, Addgene #73320), with hereby the resistance was swapped from puromycin to hygromycin. To produce the virus, 550k Lenti-X 293T cells (Takeda #632180) were seeded in a six-well plate with 3 mL of growth medium. The following day, a plasmid solution containing psPAX2 (500 ng), pVSV-G (5 ng), and AhR transfer plasmid (500 ng) was diluted in 21.5 μL of OPTIMEM, reaching a total volume of 32.5 μL. […]
For the flow cytometry experiments 150k cells were seeded in a 24 well-plate format in 0.5 mL growing medium and left to grow in the incubator for 16 h. […] They were subsequently measured on a BD LSR II and the data analyzed with FlowJo software (version 10.5.3, TreeStar). […]

[3] = target: T2, AhR-GFP (Homo sapiens, UniProt P35869); assay: MCF7 AhR-GFP.IRES.mCherry reporter, flow cytometry quantification of AhR protein levels; type: cell-based; settings: 5 μM, 5 h
T2 construct: host or cells: MCF7, lentiviral transduction
Protocol: as §1
To test the effect of these compounds on AhR abundance, we established a cellular reporter in the breast cancer cell line MCF7. AhR in this case is fused to GFP bearing an independently translated mCherry on the same transcript to allow correction for general transcriptional interference of treatments (Figure 6d,e). […]

[4] = target: T3, aryl hydrocarbon receptor (AhR) (Homo sapiens, UniProt P35869); assay: AhR/XRE-dependent luciferase reporter gene assay in XRE-HepG2 cells; type: cell-based; settings: XRE-HepG2 cells, 8 h; unit as in the supplements; read-out: AhR/XRE-dependent luciferase activity EC50
T3 construct: AhR-dependent reporter gene activity was determined in human HepG2 cells stably transfected with an XRE; endogenous in cells; host or cells: XRE-HepG2 (human HepG2 hepatoma cells stably carrying an XRE-luciferase plasmid)
T3 sequence (P35869 11-848): T1 sequence (P35869 11-848)
Protocol: (f) AhR/XRE-dependent reporter gene activity results (EC50/μM).
Data are shown as mean ± SEM.
The human XRE -HepG2 reporter cell -line was a kind gift of K. Gradin and L. Poellinger (Karolinska Institute, Stockholm,
antibiotic/antimycotic solution, and 0.8 mg/ml G418. All cells were cultivated at 37 °C in a humidified atmosphere containing 5% CO 2.
AhR-dependent reporter gene activity was determined in human HepG2 cells stably transfected with an XRE -harboring luciferase plasmid (XRE-HepG2 cells). […] Luciferase activity was normalized to protein content.

T2 sequence (P08238 whole entry partner, one chain of several): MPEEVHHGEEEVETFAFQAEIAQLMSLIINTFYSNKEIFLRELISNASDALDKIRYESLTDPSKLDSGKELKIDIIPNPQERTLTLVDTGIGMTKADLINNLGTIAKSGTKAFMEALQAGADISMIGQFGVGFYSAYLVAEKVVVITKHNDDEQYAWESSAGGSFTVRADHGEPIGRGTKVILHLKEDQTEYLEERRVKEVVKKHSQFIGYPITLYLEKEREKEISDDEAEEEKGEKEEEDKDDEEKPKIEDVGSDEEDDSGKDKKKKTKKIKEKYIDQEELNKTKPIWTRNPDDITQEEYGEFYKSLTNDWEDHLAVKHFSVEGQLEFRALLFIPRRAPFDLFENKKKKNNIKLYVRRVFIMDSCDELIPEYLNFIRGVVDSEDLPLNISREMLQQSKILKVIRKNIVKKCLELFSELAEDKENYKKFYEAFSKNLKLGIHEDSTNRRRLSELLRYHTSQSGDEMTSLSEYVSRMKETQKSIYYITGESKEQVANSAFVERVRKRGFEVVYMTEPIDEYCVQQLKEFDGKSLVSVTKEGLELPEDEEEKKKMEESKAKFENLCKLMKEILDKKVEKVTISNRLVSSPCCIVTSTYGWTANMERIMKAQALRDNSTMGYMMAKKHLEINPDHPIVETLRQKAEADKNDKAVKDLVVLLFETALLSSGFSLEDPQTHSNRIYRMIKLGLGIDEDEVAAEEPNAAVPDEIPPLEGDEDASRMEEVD
T2 sequence (O00170 whole entry partner, one chain of several): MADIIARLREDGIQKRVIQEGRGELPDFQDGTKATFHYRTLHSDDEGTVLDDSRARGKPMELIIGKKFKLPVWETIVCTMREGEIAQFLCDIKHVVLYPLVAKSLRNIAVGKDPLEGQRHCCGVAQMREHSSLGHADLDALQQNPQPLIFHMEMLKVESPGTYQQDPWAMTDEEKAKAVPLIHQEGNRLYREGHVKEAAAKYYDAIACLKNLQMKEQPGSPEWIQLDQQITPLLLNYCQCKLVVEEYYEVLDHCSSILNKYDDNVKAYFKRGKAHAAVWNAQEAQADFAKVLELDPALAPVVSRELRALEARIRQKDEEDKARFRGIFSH

For 6-formylindolo[3,2-b]carbazole [FICZ], the UVA photosensitization [1] is given as “nanomolar sensitizer for UVA radiation”.
For `O=C1CCC(N2C(=O)c3cccc(OCCOCCOCCOCCNC(=O)c4ccc5c(-c6c7[nH]c8ccccc8c7cc7[nH]c8ccccc8c67)c[nH]c5c4)c3C2=O)C(=O)N1` (stereo not drawn) [12b], the “degradation of common CRBN-thalidomide off-target factors (zinc finger proteins, GSPT1)” value [2] was “absence of degradation”, the “induced transcriptional activity (CYP1A1 and CYP1B1 protein levels)” value [2] was “upregulation of CYP1A1 and CYP1B1” and the “selectivity of protein degradation” value [2] was “selectivity for AhR degradation”. The “AhR degradation in reporter system” value [3] was “pronounced AhR degradation” and the EC50 [4] was 200 nM.
